# Tests used:
# Influenza A virus = assay: Inhibition of plaque formation; assay type: functional, organism-based
# [1] = target: Neuraminidase (Influenza A virus (A/Puerto Rico/8/1934(H1N1)), UniProt P03468); assay: Inhibition of sialidase activity; assay type: functional, Influenza A virus (strain: A/PR/8/34)
# Sequence of Neuraminidase (Influenza A virus (A/Puerto Rico/8/1934(H1N1)), UniProt P03468) (P03468 whole entry): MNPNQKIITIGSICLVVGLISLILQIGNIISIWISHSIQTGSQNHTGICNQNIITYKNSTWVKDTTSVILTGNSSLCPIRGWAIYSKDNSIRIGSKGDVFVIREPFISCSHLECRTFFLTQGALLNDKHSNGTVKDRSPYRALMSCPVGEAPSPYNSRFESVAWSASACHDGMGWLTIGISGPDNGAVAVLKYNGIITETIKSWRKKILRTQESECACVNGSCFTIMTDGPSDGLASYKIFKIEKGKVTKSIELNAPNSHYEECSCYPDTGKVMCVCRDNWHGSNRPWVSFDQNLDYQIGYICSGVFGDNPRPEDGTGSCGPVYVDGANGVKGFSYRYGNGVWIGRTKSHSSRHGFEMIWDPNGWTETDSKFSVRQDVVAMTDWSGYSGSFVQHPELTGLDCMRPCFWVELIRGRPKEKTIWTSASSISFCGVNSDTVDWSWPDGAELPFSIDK
SMILES,IC50 (Influenza A virus),IC50 [1]
CCCCCCCCCCCCCCCC(=O)N[C@@H]([C@@H]1OC(C(=O)O)=C[C@H](N=C(N)N)[C@H]1NC(C)=O)[C@H](O)CO.O=C(O)C(F)(F)F,80 ng/mL,68.7 nM
CC(=O)N[C@H]1[C@H]([C@H](F)[C@H](O)CO)OC(C(=O)O)=C[C@@H]1NC(=N)N.O=C(O)C(F)(F)F,1.8 ng/mL,1.78 nM
CC(=O)N[C@H]1[C@H]([C@H](N)[C@H](O)CO)OC(C(=O)O)=C[C@@H]1NC(=N)N.O=C(O)C(F)(F)F,20 ng/mL,84 nM
CC(=O)N[C@H]1[C@H]([C@H](N=[N+]=[N-])[C@H](O)CO)OC(C(=O)O)=C[C@@H]1NC(=N)N.O=C(O)C(F)(F)F,0.3 ng/mL,3.39 nM
CC(=O)N[C@@H]1[C@@H](N=C(N)N)C=C(C(=O)O)O[C@H]1C[C@H](O)CO.O=C(O)C(F)(F)F,10 ng/mL,93 nM
CO[C@@H]([C@@H]1OC(C(=O)O)=C[C@H](N=C(N)N)[C@H]1NC(C)=O)[C@H](O)CO.O=C(O)C(F)(F)F,3 ng/mL,
CC(=O)N[C@@H]([C@@H]1OC(C(=O)O)=C[C@H](N=C(N)N)[C@H]1NC(C)=O)[C@H](O)CO,,37.1 nM
CCCCCCCC(=O)N[C@@H]([C@@H]1OC(C(=O)O)=C[C@H](N=C(N)N)[C@H]1NC(C)=O)[C@H](O)CO.O=C(O)C(F)(F)F,100 ng/mL,84 nM
CCO[C@@H]([C@@H]1OC(C(=O)O)=C[C@H](N=C(N)N)[C@H]1NC(C)=O)[C@H](O)CO.O=C(O)C(F)(F)F,0.7 ng/mL,30.8 nM
CCC(=O)N[C@@H]([C@@H]1OC(C(=O)O)=C[C@H](N=C(N)N)[C@H]1NC(C)=O)[C@H](O)CO.O=C(O)C(F)(F)F,4 ng/mL,19.9 nM
CC(=O)N[C@@H]1[C@@H](NC(=N)N)C=C(C(=O)O)O[C@H]1C(F)(F)[C@H](O)CO.O=C(O)C(F)(F)F,400 ng/mL,1030 nM
CC(=O)N[C@H]1[C@H]([C@H](O)[C@H](O)CO)OC(C(=O)O)=C[C@@H]1NC(=N)N [ZANAMIVIR],1 ng/mL,
